Results on 5 molecules are retold here after US20120046284A1, “Salts and hydrates of 4-[(3-chloro-4-fluoro-phenyl)amino]-6-(cis-4--cyclohexan-1-yloxy)-7-methoxy-quinazoline, their use as a medicament and the preparation thereof” (BOEHRINGER INGELHEIM INTERNATIONAL GMBH, priority 2010, published 2012).

Each structure is given as a SMILES string. Values after ≈ are worked out from the molar mass of the structure shown. Where a name gives a salt, the structure may show the parent alone.

A short description of data set [1]: Solubility tests in water (2 hours shaking at ambient temperature, UV spectroscopy; pH of saturated solution). The class given is physicochemical. The note with it: for solubility: in water, 2 hours, ambient temperature; for intrinsic pH of the saturated solution: saturated aqueous solution. As to the method:
The solubility of the different crystalline forms of formula (I) or (6) in water is determined as follows: approx. 5 mg of the corresponding form are added to 5 ml of water. The mixture is shaken for 2 hours at ambient temperature in an overhead shaker made by the Heidolph company. Then the undissolved fractions are filtered off through a 0.45 μm PTFE filter. The dissolved fraction in the filtrate is determined by UV spectroscopy. In addition, the pH of the saturated aqueous solution is also measured with a standard pH electrode.

A short description of data set [2]: Water absorption tests (DVS, hygroscopic characteristics). In kind it is physicochemical. As to the method: A DVS-1 made by Surface Measurement Systems (=SMS) is used to investigate the hygroscopic characteristics: the following humidity profiles are used: from 10-90% r.h. in steps of 10%, absorption and desorption profiles are recorded, typical weights: 10-20 mg The corresponding diagrams (kinetic and isothermic plot) of the different forms are shown in FIGS. 1c+d-5c+d.

Data set [3] concerns the target T1, human EGF-R (Homo sapiens, UniProt P00533).
T1 construct: expressed in transfected cells
Kind of data set: Inhibition of the EGFR-dependent proliferation (EGF-stimulated murine haematopoietic cell line expressing human EGF-R). The class given is cell-based. Particulars: 20 ng/ml human EGF, 48 hours at 37° C. As to the method: A murine haematopoietic cell line is genetically modified so as to express functional human EGF-R. The proliferation of this cell line can therefore be stimulated by EGF.
The test is carried out as follows:
The cells are cultivated in RPMI/1640 medium. The proliferation is stimulated with 20 ng/ml of human EGF (Promega). To investigate the inhibitory activity of the compounds according to the invention these compounds are dissolved in 100% dimethylsulphoxide (DMSO) and added to the cultures in various dilutions, the maximum DMSO concentration being 1%. The cultures are incubated for 48 hours at 37° C.
In order to determine the inhibitory activity of the compound (I.1) according to the invention the relative cell number is measured in O.D. units using the Cell Titer 96TM AQueous Non-Radioactive Cell Proliferation Assay (Promega). The relative cell number is calculated as a percentage of the control and the concentration of active substance which inhibits the proliferation of the cells by 50% (IC50) is derived therefrom.

Where [4] appears, read: listed as anhydrous free base (6).
The mark [5] stands for this setting: listed as monohydrate free base (I.2).
Setting [6] is: listed as hemihydrochloride sesquihydrate (I.1).

T1 sequence (P00533 25-1210): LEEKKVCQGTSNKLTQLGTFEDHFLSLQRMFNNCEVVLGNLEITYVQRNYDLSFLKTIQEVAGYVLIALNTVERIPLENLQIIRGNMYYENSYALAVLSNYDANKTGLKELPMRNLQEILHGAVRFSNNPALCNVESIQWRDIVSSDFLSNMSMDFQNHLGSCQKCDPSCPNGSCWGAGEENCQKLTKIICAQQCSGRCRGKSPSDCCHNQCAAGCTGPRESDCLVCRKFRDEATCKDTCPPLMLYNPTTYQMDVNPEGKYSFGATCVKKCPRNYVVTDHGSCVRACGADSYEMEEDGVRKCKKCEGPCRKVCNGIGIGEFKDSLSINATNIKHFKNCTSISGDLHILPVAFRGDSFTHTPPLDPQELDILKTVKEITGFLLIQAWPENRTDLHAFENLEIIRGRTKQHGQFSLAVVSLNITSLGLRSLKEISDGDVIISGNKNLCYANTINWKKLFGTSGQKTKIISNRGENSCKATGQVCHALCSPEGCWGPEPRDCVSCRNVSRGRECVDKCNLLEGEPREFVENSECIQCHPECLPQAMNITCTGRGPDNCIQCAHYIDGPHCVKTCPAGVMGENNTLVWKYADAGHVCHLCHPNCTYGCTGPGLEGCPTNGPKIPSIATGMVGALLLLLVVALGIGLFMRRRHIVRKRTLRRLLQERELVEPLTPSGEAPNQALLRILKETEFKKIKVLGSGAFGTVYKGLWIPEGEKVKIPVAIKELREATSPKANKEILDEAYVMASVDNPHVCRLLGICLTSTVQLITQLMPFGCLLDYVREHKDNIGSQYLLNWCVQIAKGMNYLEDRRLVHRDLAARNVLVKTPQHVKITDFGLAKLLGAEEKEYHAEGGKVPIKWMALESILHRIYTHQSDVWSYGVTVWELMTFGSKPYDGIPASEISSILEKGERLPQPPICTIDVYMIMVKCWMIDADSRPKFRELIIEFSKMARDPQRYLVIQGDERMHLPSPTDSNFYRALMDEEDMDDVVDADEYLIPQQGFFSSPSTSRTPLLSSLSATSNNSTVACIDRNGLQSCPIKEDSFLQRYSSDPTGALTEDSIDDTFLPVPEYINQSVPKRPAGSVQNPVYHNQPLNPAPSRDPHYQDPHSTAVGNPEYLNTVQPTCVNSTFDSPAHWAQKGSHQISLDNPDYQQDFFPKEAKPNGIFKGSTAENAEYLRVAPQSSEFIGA

In the case of `COc1cc2ncnc(Nc3ccc(F)c(Cl)c3)c2cc1O[C@H]1CC[C@@H](N(C)C(=O)N2CCOCC2)CC1` [(6), 4-[(3-chloro-4-fluoro-phenyl)amino]-6-(cis-4-{N-[(morph-1-olin-4-yl)carbonyl]-N-methyl-amino}-cyclohexan-1-yloxy)-7-methoxy-quinazoline], in data set [1] (setting [4]), the solubility (in general, how much of the substance goes into solution per volume) is below 0.001 mg/mL and the “intrinsic pH of the saturated solution” value was 5.9.
With `COc1cc2ncnc(Nc3ccc(F)c(Cl)c3)c2cc1O[C@H]1CC[C@@H](N(C)C(=O)N2CCOCC2)CC1` [Compound (I.2), 4-[(3-chloro-4-fluoro-phenyl)amino]-6-(cis-4-{N-[(morph-1-olin-4-yl)carbonyl]-N-methyl-amino}-cyclohexan-1-yloxy)-7-methoxy-quinazoline], in data set [1] (setting [5]), the solubility is below 0.001 mg/mL and the “intrinsic pH of the saturated solution” value is 5.9.
Regarding `COc1cc2ncnc(Nc3ccc(F)c(Cl)c3)c2cc1O[C@H]1CC[C@@H](N(C)C(=O)N2CCOCC2)CC1` [low-melting form monohydrochloride (I.3), 4-[(3-chloro-4-fluoro-phenyl)amino]-6-(cis-4-{N-[(morph-1-olin-4-yl)carbonyl]-N-methyl-amino}-cyclohexan-1-yloxy)-7-methoxy-quinazoline], in data set [1], the solubility was 0.047 mg/mL and the “intrinsic pH of the saturated solution” value was 4.0.
With `COc1cc2ncnc(Nc3ccc(F)c(Cl)c3)c2cc1O[C@H]1CC[C@@H](N(C)C(=O)N2CCOCC2)CC1` [Compound (I.1), 4-[(3-chloro-4-fluoro-phenyl)amino]-6-(cis-4-{N-[(morph-1-olin-4-yl)carbonyl]-N-methyl-amino}-cyclohexan-1-yloxy)-7-methoxy-quinazoline], in data set [2], the “hygroscopic characteristics: change in particle size or phase depending on the relative humidity” value is reported as “no change in particle size or phase change takes place”. Besides, in data set [1] (setting [6]), the solubility came out at 0.17 mg/mL (≈ 312 µM) and the “intrinsic pH of the saturated solution” value worked out at 6.5. Further, in data set [3], the IC50 (in general, the midpoint of a concentration-inhibition curve) amounted to 10 nM.
As for `COc1cc2ncnc(Nc3ccc(F)c(Cl)c3)c2cc1O[C@H]1CC[C@@H](N(C)C(=O)N2CCOCC2)CC1` [high-melting form monohydrochloride (I.3)] [4-[(3-chloro-4-fluoro-phenyl)amino]-6-(cis-4-{N-[(morph-1-olin-4-yl)carbonyl]-N-methyl-amino}-cyclohexan-1-yloxy)-7-methoxy-quinazoline], in data set [1], the solubility came out at 0.041 mg/mL and the “intrinsic pH of the saturated solution” value is on record as 3.3.
